Source: US20180256592A1, “ANTIBACTERIAL COMPOSITIONS” (priority 2015, published 2018)

Columns and labels:
Type in all cases: cell-based
[1] = test system: Klebsiella H 523 (KPC, class A); assay: MIC by agar dilution (MHA, CLSI)
Protocol: (§1) The antibacterial activity of combinations according to the invention was investigated against various bacterial strains. In a typical study, minimum inhibitory concentrations (MICs) were determined using Muller Hinton Agar (MHA) (BD, USA) according to Clinical and Laboratory Standards Institute (CLSI) recommendations, (Clinical and Laboratory Standards Institute (CLSI), Performance Standards for Antimicrobial Susceptibility Testing, 20th Informational Supplement, M 100-S20, Volume 30, No. 1, 2010). In short, the inocula were adjusted to deliver about […] colony forming units (CFU) per spot with a multipoint inoculator (Applied Quality Services, UK). The plates were pored with doubling concentration range of the test combinations according to invention containing MHA. The plates were inoculated and were incubated at 35° C. for 18 hours.

[2] = test system: Klebsiella H 515 (KPC, class A); assay: MIC by agar dilution (MHA, CLSI)
Protocol: as §1

[3] = test system: Klebsiella J 117 (SHV, OMP); assay: MIC by agar dilution (MHA, CLSI)
Protocol: as §1

[4] = test system: NCTC KP 13442 (OXA-48); assay: MIC by agar dilution (MHA, CLSI)
Protocol: as §1

[5] = test system: Klebsiella J 130 (SHV, OMP); assay: MIC by agar dilution (MHA, CLSI)
Protocol: as §1

[6] = test system: Klebsiella J 101 (TEM, SHV, OMP); assay: MIC by agar dilution (MHA, CLSI)
Protocol: as §1

[7] = test system: Klebsiella J 102 (TEM, SHV, OMP); assay: MIC by agar dilution (MHA, CLSI)
Protocol: as §1

[8] = test system: Klebsiella H 521 (KPC, class A); assay: MIC by agar dilution (MHA, CLSI)
Protocol: as §1

[9] = test system: KP S 440 (OXA 181, SHV, TEM, CTX-M 1); assay: MIC by agar dilution (MHA, CLSI)
Protocol: as §1

[10] = test system: Klebsiella H 520 (KPC, class A); assay: MIC by agar dilution (MHA, CLSI)
Protocol: as §1

[11] = test system: highly resistant gram negative bacterial strains; assay: MIC by agar dilution (MHA, CLSI), whole strain panel of Table 1; settings: read-out: MICs when used alone
Protocol: as §1

[12] = test system: KP S 691 (OXA 181, SHV, TEM, CTX-M 1); assay: MIC by agar dilution (MHA, CLSI)
Protocol: as §1

[13] = KP S 691 (OXA 181, SHV, TEM, CTX-M 1), + clavulanic acid 4 μg/ml

C[C@@H](O)[C@H]1C(=O)N2C(C(=O)O)=C(SCCN=CN)C[C@H]12 [Imipenem]
4 µg/mL: MIC ([5]; drug alone) | MIC ([6]; drug alone)
8 µg/mL: MIC ([7]; drug alone)
16 µg/mL: MIC ([2]; drug alone)
> 32 µg/mL: MIC ([1]; drug alone) | MIC ([8]; drug alone) | MIC ([10]; drug alone)
2 µg/mL: MIC ([3]; drug alone) | MIC ([4]; drug alone) | MIC ([9]; drug alone)

CC1(C)[C@H](C(=O)O)N2C(=O)C[C@H]2S1(=O)=O [Sulbactam, sulbactam]
> 32 µg/mL: MIC [11]

C=CC1=C(C(=O)O)N2C(=O)[C@@H](NC(=O)/C(=N\OCC(=O)O)c3csc(N)n3)[C@H]2SC1 [Cefixime, cefixime]
0.5 µg/mL: MIC in presence of Clavulanic acid (4 μg/ml) ([3]; + clavulanic acid 4 μg/ml)
> 32 µg/mL: MIC ([1]; drug alone) | MIC ([2]; drug alone) | MIC ([3]; drug alone) | MIC ([5]; drug alone) | MIC ([6]; drug alone) | MIC [12] | MIC ([7]; drug alone) | MIC ([8]; drug alone) | MIC ([9]; drug alone) | MIC ([10]; drug alone)
0.25 µg/mL: MIC in presence of Clavulanic acid (4 μg/ml) ([4]; + clavulanic acid 4 μg/ml) | MIC ([4]; drug alone)
>32 µg/mL: MIC in presence of Clavulanic acid (4 μg/ml) ([6]; + clavulanic acid 4 μg/ml) | MIC in presence of Clavulanic acid (4 μg/ml) ([7]; + clavulanic acid 4 μg/ml)
16 µg/mL: MIC in presence of Clavulanic acid (4 μg/ml) ([1]; + clavulanic acid 4 μg/ml) | MIC in presence of Clavulanic acid (4 μg/ml) ([2]; + clavulanic acid 4 μg/ml) | MIC in presence of Clavulanic acid (4 μg/ml) ([5]; + clavulanic acid 4 μg/ml) | MIC in presence of Clavulanic acid (4 μg/ml) [12, 13] | MIC in presence of Clavulanic acid (4 μg/ml) ([8]; + clavulanic acid 4 μg/ml) | MIC in presence of Clavulanic acid (4 μg/ml) ([9]; + clavulanic acid 4 μg/ml) | MIC in presence of Clavulanic acid (4 μg/ml) ([10]; + clavulanic acid 4 μg/ml)

COCC1=C(C(=O)O)N2C(=O)[C@@H](NC(=O)/C(=N\OC)c3csc(N)n3)[C@H]2SC1 [Cefpodoxime, cefpodoxime]
>32 μ/ml: MIC of Cefpodoxime in presence of Clavulanic acid (4 μg/ml) ([1]; + clavulanic acid 4 μg/ml) | MIC of Cefpodoxime, Control (Cefpodoxime alone) ([1]; drug alone) | MIC of Cefpodoxime in presence of Clavulanic acid (4 μg/ml) ([2]; + clavulanic acid 4 μg/ml) | MIC of Cefpodoxime, Control (Cefpodoxime alone) ([2]; drug alone) | MIC of Cefpodoxime, Control (Cefpodoxime alone) ([3]; drug alone) | MIC of Cefpodoxime, Control (Cefpodoxime alone) ([5]; drug alone) | MIC of Cefpodoxime in presence of Clavulanic acid (4 μg/ml) ([6]; + clavulanic acid 4 μg/ml) | MIC of Cefpodoxime, Control (Cefpodoxime alone) ([6]; drug alone) | MIC of Cefpodoxime in presence of Clavulanic acid (4 μg/ml) [12, 13] | MIC of Cefpodoxime, Control (Cefpodoxime alone) ([12]; KP S 691 (OXA 181, SHV, TEM, CTX-M 1), drug alone) | MIC of Cefpodoxime in presence of Clavulanic acid (4 μg/ml) ([7]; + clavulanic acid 4 μg/ml) | MIC of Cefpodoxime, Control (Cefpodoxime alone) ([7]; drug alone) | MIC of Cefpodoxime in presence of Clavulanic acid (4 μg/ml) ([8]; + clavulanic acid 4 μg/ml) | MIC of Cefpodoxime, Control (Cefpodoxime alone) ([8]; drug alone) | MIC of Cefpodoxime in presence of Clavulanic acid (4 μg/ml) ([9]; + clavulanic acid 4 μg/ml) | MIC of Cefpodoxime, Control (Cefpodoxime alone) ([9]; drug alone) | MIC of Cefpodoxime in presence of Clavulanic acid (4 μg/ml) ([10]; + clavulanic acid 4 μg/ml) | MIC of Cefpodoxime, Control (Cefpodoxime alone) ([10]; drug alone)
1 μ/ml: MIC of Cefpodoxime in presence of Clavulanic acid (4 μg/ml) ([4]; + clavulanic acid 4 μg/ml)
4 μ/ml: MIC of Cefpodoxime in presence of Clavulanic acid (4 μg/ml) ([3]; + clavulanic acid 4 μg/ml) | MIC of Cefpodoxime, Control (Cefpodoxime alone) ([4]; drug alone)
32 μ/ml: MIC of Cefpodoxime in presence of Clavulanic acid (4 μg/ml) ([5]; + clavulanic acid 4 μg/ml)
